Reference: PubChem BioAssay AID256 (DTP/NCI, 2004)
Inconclusive results and toxic doses are left out. How the source made its calls: active means survival T/C of 150% or more; inactive means T/C below 125% in these data.

Tested on: CD2F1 mice, L1210 leukemia ip, survival T/C
Test: NCI In Vivo Anticancer Drug Screen. Data for tumor model L1210 Leukemia (intraperitoneal) in CD2F1 (CDF1) mice
Conditions: higher = longer survival
Method in brief: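 In this screen, transplantable tumors were grown in mice given either the compound or its vehicle. Results were expressed as the treated measurement relative to the control measurement.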

[1] = endpoint: mean survival time, dose: 100.0 mg/kg/injection, schedule: Q04DX003 (ip), vehicle: saline with Tween-80
[2] = endpoint: mean survival time, dose: 200.0 mg/kg/injection, schedule: Q04DX003 (ip), vehicle: saline with Tween-80
[3] = endpoint: mean survival time, dose: 400.0 mg/kg/injection, schedule: Q04DX003 (ip), vehicle: saline with Tween-80
[4] = endpoint: mean survival time, dose: 100.0 mg/kg/injection, schedule: Q01DX009 (ip), vehicle: saline with Tween-80
[5] = endpoint: mean survival time, dose: 200.0 mg/kg/injection, schedule: Q01DX009 (ip), vehicle: saline with Tween-80
[6] = endpoint: mean survival time, dose: 400.0 mg/kg/injection, schedule: Q01DX009 (ip), vehicle: saline with Tween-80
[7] = endpoint: mean survival time, dose: 12.5 mg/kg/injection, schedule: Q01DX009 (ip), vehicle: suspension in saline
[8] = endpoint: mean survival time, dose: 25.0 mg/kg/injection, schedule: Q01DX009 (ip), vehicle: suspension in saline
[9] = endpoint: mean survival time, dose: 50.0 mg/kg/injection, schedule: Q01DX009 (ip), vehicle: suspension in saline
[10] = endpoint: mean survival time, dose: 100.0 mg/kg/injection, schedule: Q01DX001 (ip), vehicle: saline with Tween-80
[11] = endpoint: mean survival time, dose: 200.0 mg/kg/injection, schedule: Q01DX001 (ip), vehicle: saline with Tween-80

Measured: T/C

O=C(/C=C/c1ccccc1)Oc1cc(O)cc(O)c1
inactive: endpoint: mean survival time, dose: 12.5 mg/kg/injection, schedule: Q04DX002 (ip), vehicle: saline with Tween-80 102 % of control | endpoint: mean survival time, dose: 25.0 mg/kg/injection, schedule: Q04DX002 (ip), vehicle: saline with Tween-80 105 % of control | endpoint: mean survival time, dose: 50.0 mg/kg/injection, schedule: Q04DX002 (ip), vehicle: saline with Tween-80 105 % of control

Nc1ccc2sccc2c1
inactive: [1] 103 % of control | [2] 102 % of control | [3] 101 % of control

CC(C)(C)OC(=O)NC(CCC(=O)O)C(=O)OC(C)(C)C (stereo not drawn)
inactive: [4] 102 % of control | [5] 93 % of control | [6] 92 % of control

COc1ccc2nc(-c3ccc(F)cc3)cc(C(=O)O)c2c1
inactive: [1] 97 % of control | [2] 101 % of control | [3] 101 % of control

N=C(N)Sc1ccccn1
inactive: [7] 98 % of control | [8] 108 % of control | [9] 93 % of control | endpoint: mean survival time, dose: 100.0 mg/kg/injection, schedule: Q01DX009 (ip), vehicle: suspension in saline 93 % of control | endpoint: mean survival time, dose: 200.0 mg/kg/injection, schedule: Q01DX009 (ip), vehicle: suspension in saline 87 % of control | endpoint: mean survival time, dose: 400.0 mg/kg/injection, schedule: Q01DX009 (ip), vehicle: suspension in saline 90 % of control

CSc1nc2cc(S(=O)(=O)O)ccc2s1
inactive: endpoint: mean survival time, dose: 100.0 mg/kg/injection, schedule: Q04DX003 (ip), vehicle: saline sonified 103 % of control | endpoint: mean survival time, dose: 200.0 mg/kg/injection, schedule: Q04DX003 (ip), vehicle: saline sonified 97 % of control | endpoint: mean survival time, dose: 400.0 mg/kg/injection, schedule: Q04DX003 (ip), vehicle: saline sonified 89 % of control

Nc1ncnc2c1c1c(SCc3ccc([N+](=O)[O-])cc3)ncnc1n2C1OC(CO)C(O)C1O (stereo not drawn)
inactive: endpoint: mean survival time, dose: 6.25 mg/kg/injection, schedule: Q01DX005 (ip), vehicle: other 104 % of control | endpoint: mean survival time, dose: 12.5 mg/kg/injection, schedule: Q01DX005 (ip), vehicle: other 104 % of control | endpoint: mean survival time, dose: 25.0 mg/kg/injection, schedule: Q01DX005 (ip), vehicle: other 104 % of control | endpoint: mean survival time, dose: 50.0 mg/kg/injection, schedule: Q01DX005 (ip), vehicle: other 113 % of control | endpoint: mean survival time, dose: 100.0 mg/kg/injection, schedule: Q01DX005 (ip), vehicle: other 103 % of control | endpoint: mean survival time, dose: 200.0 mg/kg/injection, schedule: Q01DX005 (ip), vehicle: other 98 % of control

CCOC(=O)C(C(C)=O)C(C)=O
inactive: [1] 102 % of control | [2] 94 % of control | [3] 94 % of control

CCCCCCCCCSCC
inactive: [4] 100 % of control | [5] 100 % of control | [6] 88 % of control

CC1(C)OC2C(/C=N/O)OC(n3ccc(=O)[nH]c3=O)C2O1 (stereo not drawn)
inactive: endpoint: median survival time, dose: 23.13 mg/kg/injection, schedule: Q01DX005 (ip), vehicle: Klucel (hydroxypropylcellulose) (HPC) 107 % of control | endpoint: median survival time, dose: 46.25 mg/kg/injection, schedule: Q01DX005 (ip), vehicle: Klucel (hydroxypropylcellulose) (HPC) 102 % of control | endpoint: median survival time, dose: 92.5 mg/kg/injection, schedule: Q01DX005 (ip), vehicle: Klucel (hydroxypropylcellulose) (HPC) 102 % of control | endpoint: median survival time, dose: 185.0 mg/kg/injection, schedule: Q01DX005 (ip), vehicle: Klucel (hydroxypropylcellulose) (HPC) 108 % of control

CCOC(=O)c1cc(=O)n(C)c2ccc(OCC)cc12
inactive: endpoint: mean survival time, dose: 100.0 mg/kg/injection, schedule: Q01DX009 (ip), vehicle: saline sonified 101 % of control | [1] 100 % of control | endpoint: mean survival time, dose: 200.0 mg/kg/injection, schedule: Q01DX009 (ip), vehicle: saline sonified 97 % of control | [2] 91 % of control | endpoint: mean survival time, dose: 400.0 mg/kg/injection, schedule: Q01DX009 (ip), vehicle: saline sonified 97 % of control | [3] 91 % of control

O=C(O)C(=O)O.[NH-]C1CCCC1[NH-].[Pt+2] (stereo not drawn)
inactive: endpoint: mean survival time, dose: 1.25 mg/kg/injection, schedule: Q04DX003 (ip), vehicle: other 104 % of control | endpoint: mean survival time, dose: 2.5 mg/kg/injection, schedule: Q04DX003 (ip), vehicle: other 114 % of control | endpoint: mean survival time, dose: 5.0 mg/kg/injection, schedule: Q04DX003 (ip), vehicle: other 115 % of control | endpoint: mean survival time, dose: 10.0 mg/kg/injection, schedule: Q04DX003 (ip), vehicle: other 106 % of control

CN(C)c1ccc(C2(O)C3CCC2CC3)cc1 (stereo not drawn)
inactive: endpoint: median survival time, dose: 25.0 mg/kg/injection, schedule: Q04DX002 (ip), vehicle: saline with Tween-80 90 % of control | endpoint: median survival time, dose: 50.0 mg/kg/injection, schedule: Q04DX002 (ip), vehicle: saline with Tween-80 100 % of control | endpoint: median survival time, dose: 100.0 mg/kg/injection, schedule: Q04DX002 (ip), vehicle: saline with Tween-80 90 % of control

O=C1CC(c2ccccc2)=NO1
inactive: [10] 106 % of control | [11] 101 % of control | endpoint: mean survival time, dose: 400.0 mg/kg/injection, schedule: Q01DX001 (ip), vehicle: saline with Tween-80 101 % of control

COC(=O)c1ccccc1SSc1ccccc1C(=O)OC
inactive: [4] 93 % of control | [5] 98 % of control | [6] 93 % of control

COc1ccc2c(ccc[n+]2C)c1
inactive: endpoint: mean survival time, dose: 5.0 mg/kg/injection, schedule: Q01DX009 (ip), vehicle: saline 106 % of control | endpoint: mean survival time, dose: 5.0 mg/kg/injection, schedule: Q04DX003 (ip), vehicle: saline 103 % of control | endpoint: mean survival time, dose: 10.0 mg/kg/injection, schedule: Q01DX009 (ip), vehicle: saline 107 % of control | endpoint: mean survival time, dose: 10.0 mg/kg/injection, schedule: Q04DX003 (ip), vehicle: saline 101 % of control | endpoint: mean survival time, dose: 12.5 mg/kg/injection, schedule: Q01DX009 (ip), vehicle: alcohol 107 % of control | endpoint: mean survival time, dose: 12.5 mg/kg/injection, schedule: Q04DX003 (ip), vehicle: acetone 104 % of control | endpoint: mean survival time, dose: 20.0 mg/kg/injection, schedule: Q01DX009 (ip), vehicle: saline 106 % of control | endpoint: mean survival time, dose: 20.0 mg/kg/injection, schedule: Q04DX003 (ip), vehicle: saline 109 % of control | endpoint: mean survival time, dose: 25.0 mg/kg/injection, schedule: Q01DX009 (ip), vehicle: alcohol 116 % of control | endpoint: mean survival time, dose: 25.0 mg/kg/injection, schedule: Q04DX003 (ip), vehicle: acetone 106 % of control | endpoint: mean survival time, dose: 50.0 mg/kg/injection, schedule: Q04DX003 (ip), vehicle: acetone 106 % of control

OCCOCC12c3ccccc3C3C(c4ccccc41)C32 (stereo not drawn)
inactive: endpoint: mean survival time, dose: 25.0 mg/kg/injection, schedule: Q01DX001 (ip), vehicle: saline with Tween-80 91 % of control | endpoint: mean survival time, dose: 50.0 mg/kg/injection, schedule: Q01DX001 (ip), vehicle: saline with Tween-80 97 % of control | [10] 105 % of control | [11] 94 % of control

CC[N](CC)[Ge]([CH2]C)[CH2]C.CC[N](CC)[Ge]([CH2]C)[CH2]C
inactive: endpoint: mean survival time, dose: 3.12 mg/kg/injection, schedule: Q01DX009 (ip), vehicle: saline 98 % of control | endpoint: mean survival time, dose: 3.12 mg/kg/injection, schedule: Q01DX009 (ip), vehicle: suspension in saline 98 % of control | endpoint: mean survival time, dose: 6.25 mg/kg/injection, schedule: Q01DX009 (ip), vehicle: saline 98 % of control | endpoint: mean survival time, dose: 6.25 mg/kg/injection, schedule: Q01DX009 (ip), vehicle: suspension in saline 114 % of control | endpoint: mean survival time, dose: 12.5 mg/kg/injection, schedule: Q01DX009 (ip), vehicle: saline 98 % of control | [7] 106 % of control | endpoint: mean survival time, dose: 25.0 mg/kg/injection, schedule: Q01DX009 (ip), vehicle: saline 101 % of control | [8] 97 % of control | endpoint: mean survival time, dose: 50.0 mg/kg/injection, schedule: Q01DX009 (ip), vehicle: saline 110 % of control | [9] 101 % of control

CCCN(CCC)C(=S)[S-].CCCN(CCC)C(=S)[S-].[Zn]
inactive: endpoint: mean survival time, dose: 75.0 mg/kg/injection, schedule: Q04DX003 (ip), vehicle: saline 95 % of control | endpoint: mean survival time, dose: 150.0 mg/kg/injection, schedule: Q04DX003 (ip), vehicle: saline 86 % of control | endpoint: mean survival time, dose: 300.0 mg/kg/injection, schedule: Q04DX003 (ip), vehicle: saline 101 % of control

O=C(CC1(O)C(=O)Nc2ccccc21)c1c[nH]c2ccccc12 (stereo not drawn)
inactive: endpoint: mean survival time, dose: 50.0 mg/kg/injection, schedule: Q01DX009 (ip), vehicle: saline with Tween-80 95 % of control | [4] 98 % of control | [5] 91 % of control

CCCCCC(C)NCCO (stereo not drawn)
inactive: endpoint: mean survival time, dose: 75.0 mg/kg/injection, schedule: Q01DX001 (ip), vehicle: saline 98 % of control
